Read-outs that look alike come from different tables or passages of the source. Blank lines part the entries; values can stand above or below the molecule they belong to.
Experiments:
MiaPaCa-2 cells [1] = experiment: Cell proliferation (cell confluence), IncuCyte Live-Cell Analysis System; type: cell-based, human; details: for IC50: Homo sapiens; for Inhibition of cell proliferation in combination with Mito-PEG5-ATO (combination index): combined with Mito-PEG5-ATO; for % changes of IC50 with vs without Mito-PEG5-ATO: heat map Fig. 7d
Protocol: The following cell lines were obtained from the American Type Culture Collection (Manassas, VA), where they were regularly authenticated: MiaPaCa-2 (ATCC Cat# CRL-1420, human pancreatic cancer cells), U87MG (ATCC Cat# HTB-14, human brain cancer cells), A549 (ATCC Cat# CCL-185, lung cancer cells), and HCT-116 (ATCC Cat# CCL-247, colon cancer cells). All cell lines were grown at 37 °C in 5% carbon dioxide. MiaPaCa-2 cells were maintained in Dulbecco's Modified Eagle Medium (Thermo Fisher Scientific, Waltham, MA; Cat# 11965) supplemented with 10% fetal bovine serum. U87MG, A549, and HCT-116 cells were maintained in RPMI 1640 medium (Thermo Fisher Scientific, Cat# 11875), supplemented with 10% fetal bovine serum. All cells were stored in liquid nitrogen and used within 20 passages after thawing.
The IncuCyte Live-Cell Analysis System was used to monitor cell proliferation[3],[33],[67]. As shown in previous publications[3],[67], this imaging system is probe-free and noninvasive, and enables continuous monitoring of cell confluence over several days. The increase in the percentage of cell confluence was used as a surrogate marker of cell proliferation. In a 96-well plate, cells were plated at 1,000 cells per well in triplicates and left to adhere overnight. Cells were then treated with Mito-PEG-ATO analogs, and the cell confluency was recorded over several days in the IncuCyte Live-Cell Analysis System.

MiaPaCa-2 cells [2] = experiment: Intracellular oxidants: HPLC of hydroethidine (HE) oxidation products; type: cell-based, human; details: 24 h, with Mito-PEG5-ATO 0.05 µM, AZD-3965 200 µM or CPI-613 200 µM
Protocol: Hydroethidine (HE) or dihydroethidium was used as a fluorogenic probe to assess the cellular generation of superoxide and other peroxidatic oxidants[36],[37]. Cells were treated for 24 h with Mito-PEG5-ATO alone or in combination with AZD-3965 or CPI-613, followed by 1 h incubation with HE (10 µM). Cells were harvested and the cell pellet stored at − 80 °C until the day of high-performance liquid chromatography (HPLC) analysis. Sample preparation and HPLC analysis were performed as previously reported[32],[36]. 2-OH-E^+ was used as a specific marker for superoxide, and E^+-E^+ was used as a specific marker for intracellular one-electron oxidants[36],[37].
HE was purchased from Invitrogen (Carlsbad, CA). Stock solutions (20 mM and 5 mM, respectively) were prepared in deoxygenated DMSO (dimethyl sulfoxide) and stored at − 80 °C until use. Ethidium cation (bromide salt) was purchased from Sigma-Aldrich. The hydroxylated oxidation products from HE (2-OH-E^+) were prepared by reacting the probes with Fremy’s salt as previously described in detail[70],[71]. The dimeric products were prepared by reacting the probes with excess potassium ferricyanide, as detailed elsewhere. Synthesized standards of all oxidation products of HE were purified by HPLC. HPLC-based measurements of HE and its oxidation products were performed using an Agilent 1100 system equipped with absorption and fluorescence detectors and refrigerated autosampler (4 °C). The samples (50 µL) were injected into a reverse phase column (Phenomenex, Kinetex C18, 100 mm × 4.6 mm, 2.6 µm) equilibrated with 20% acetonitrile and 80% water containing 0.1% trifluoroacetic acid. The compounds were eluted by increasing the content of acetonitrile from 20 to 56% over 4.5 min at a flow rate of 1.5 mL/min. The absorption detector was used to measure 3,8-diamino-6-phenylphenanthridine (at 290 nm; retention time: 2.5 min), HE-E^+ (at 290 nm; retention time: 4.1 min), E^+-E^+ (at 290 nm; retention time: 4.3 min), and HE (at 370 nm; retention time: 1.6 min). A fluorescence detector (initial excitation at 358 nm and emission at 440 nm) was used to monitor HE (when present at low concentrations). At 2.3 min after injection, the fluorescence parameters were changed (excitation at 490 nm and emission at 567 nm) for sensitive detection of 2-OH-E^+ (retention time: 3.2 min) and E^+ (retention time: 3.3 min).

MiaPaCa-2 cells [3] = experiment: Intracellular ATP, luciferase-based assay; type: cell-based, human; details: Mito-PEG5-ATO 0 µM, 24 h
Protocol: After seeding cells overnight at 2 × 10^4 per well in 96-well plates, cells were treated for 24 h. Intracellular ATP levels were determined in cell lysates using a luciferase-based assay per the manufacturer’s instructions (cat# FLAA, Sigma Aldrich, St. Louis, MO). In brief, the assay starts by rapidly adding an ATP assay mix solution (luciferase and luciferin solution, cat# FLAAM) to cell lysates. This is swirled briskly to mix, and the amount of light produced is immediately measured with a luminometer. The results were normalized to the total protein level measured in each well, as determined by the Bradford method (Bio-Rad Laboratories, Hercules, CA).

[4] = tested on: mitochondrial respiration (OCR) in intact MiaPaCa-2 cells; experiment: Intact cell mitochondrial respiration (basal OCR), Seahorse XF-96; type: cell-based, human; details: for OCR (pmol/min/µg protein): 24 h treatment, intact MiaPaCa-2 cells, baseline OCR, mean, n=4
Protocol: (§1) Mitochondrial oxygen consumption was measured using the Seahorse XF-96 Extracellular Flux Analyzer (Agilent, North Billerica, MA)[3],[33],[67],[68]. To determine the intact cell mitochondrial function of MiaPaCa-2 cells in response to Mito-PEG-ATO analogs, we used the bioenergetic function assay previously described[2],[3]. […] From these measurements, indices of mitochondrial function were determined as previously described[2],[3]. For mitochondrial complex activities assays, after cells were treated with Mito-PEG-ATO analogs for 24 h, the OCR-based assessment of mitochondrial complex activities was carried out on acutely permeabilized cells in the presence of different mitochondrial substrates, i.e., pyruvate/malate for complex I and duroquinol for complex III[3],[32],[34],[69]. Rotenone, malonate, and antimycin A (Sigma-Aldrich, St. Louis, MO) were used as specific inhibitors of mitochondrial complexes I, II, and III, respectively. Briefly, cells that were intact after treatments were immediately permeabilized using the Seahorse XF Plasma Membrane Permeabilizer (Agilent). The mitochondrial complex I-induced OCR was assayed in mannitol and sucrose buffer[69] containing 10 mM pyruvate and 1.5 mM malate (substrates for complex I) and 10 mM malonate (which inhibits complex II activities). The mitochondrial complex III-driven OCR was assayed in a mannitol and sucrose buffer containing 0.5 mM duroquinol (substrate for complex III) as well as 1 µM rotenone and 10 mM malonate (which inhibit both complex I and II activities). The IC50 values were determined as previously reported.

[5] = molecular target: mitochondrial complex III (MiaPaCa-2 cells) (Homo sapiens, UniProt P00156); experiment: Complex III-dependent oxygen consumption in permeabilized cells, Seahorse XF-96; type: cell-based
Protocol: as §1

[6] = MIA PaCa-2, MiaPaCa-2 cells, inhibitor alone, control ~90% confluence, read-out: IC50 (cell proliferation) without Mito-PEG5-ATO

Sequence of mitochondrial complex III (MiaPaCa-2 cells) (P00156 whole entry): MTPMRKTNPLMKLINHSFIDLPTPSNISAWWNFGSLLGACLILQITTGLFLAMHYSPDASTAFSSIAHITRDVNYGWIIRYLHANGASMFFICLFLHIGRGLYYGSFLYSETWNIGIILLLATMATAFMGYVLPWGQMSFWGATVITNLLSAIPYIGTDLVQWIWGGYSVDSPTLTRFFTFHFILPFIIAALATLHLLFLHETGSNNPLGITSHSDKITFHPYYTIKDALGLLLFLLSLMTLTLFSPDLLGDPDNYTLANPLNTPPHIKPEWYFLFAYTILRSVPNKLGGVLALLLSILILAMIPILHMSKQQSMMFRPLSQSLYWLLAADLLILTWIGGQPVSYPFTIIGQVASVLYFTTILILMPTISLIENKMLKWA
Sequence of mitochondrial complex III (MiaPaCa-2 cells) (P47985 whole entry partner): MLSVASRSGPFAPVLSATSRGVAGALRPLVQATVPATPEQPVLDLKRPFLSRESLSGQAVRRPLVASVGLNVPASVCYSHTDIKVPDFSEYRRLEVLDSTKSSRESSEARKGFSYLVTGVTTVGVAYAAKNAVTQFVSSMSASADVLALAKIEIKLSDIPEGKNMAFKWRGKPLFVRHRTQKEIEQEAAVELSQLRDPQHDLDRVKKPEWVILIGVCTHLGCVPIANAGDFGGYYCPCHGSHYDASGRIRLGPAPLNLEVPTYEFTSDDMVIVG

IC50 (MiaPaCa-2 cells [1]; [6]): 197 µM
% changes of IC50 with vs without Mito-PEG5-ATO (MiaPaCa-2 cells [1]; MiaPaCa-2 cells): 38.6%
SMILES: O=C(O)CCCCC(CCSCc1ccccc1)SCc1ccccc1 (centres unmarked) [CPI-613, reference compound]
Inhibition of cell proliferation, alone (MiaPaCa-2 cells [1]; MiaPaCa-2 cells, 200 µM): only moderately inhibited cell proliferation
Inhibition of cell proliferation in combination with Mito-PEG5-ATO (combination index) (MiaPaCa-2 cells [1]; MiaPaCa-2 cells): synergistically inhibited cell proliferation
Intracellular oxidant-induced HE-derived products, in combination with Mito-PEG5-ATO (MiaPaCa-2 cells [2]): modest and additive increase

IC50 (MiaPaCa-2 cells [1]; [6]): 8 µM
% changes of IC50 with vs without Mito-PEG5-ATO (MiaPaCa-2 cells [1]; MiaPaCa-2 cells): 53.8%
SMILES: CCOC(=O)Oc1c(OC)cc(C(=O)O[C@@H]2C[C@@H]3CN4CCc5c([nH]c6cc(OC)ccc56)[C@H]4C[C@@H]3[C@H](C(=O)OC)[C@H]2OC)cc1OC [syrosingopine]
Inhibition of cell proliferation in combination with Mito-PEG5-ATO (combination index) (MiaPaCa-2 cells [1]; MiaPaCa-2 cells): Synergistic inhibition
intracellular ATP level (MiaPaCa-2 cells [3]; syrosingopine 1 µM): 29.40 nmol ATP/mg protein
intracellular ATP level (MiaPaCa-2 cells [3]; syrosingopine 3 µM): 30.31 nmol ATP/mg protein
intracellular ATP level (MiaPaCa-2 cells [3]; syrosingopine 4 µM): 29.92 nmol ATP/mg protein
intracellular ATP level (MiaPaCa-2 cells [3]; syrosingopine 5 µM): 30.42 nmol ATP/mg protein
intracellular ATP level (MiaPaCa-2 cells [3]; syrosingopine 6 µM): 30.16 nmol ATP/mg protein
intracellular ATP level (MiaPaCa-2 cells [3]; syrosingopine 7 µM): 31.07 nmol ATP/mg protein
intracellular ATP level (MiaPaCa-2 cells [3]; syrosingopine 8 µM): 31.92 nmol ATP/mg protein
intracellular ATP level (MiaPaCa-2 cells [3]; syrosingopine 9 µM): 32.59 nmol ATP/mg protein
intracellular ATP level (MiaPaCa-2 cells [3]; syrosingopine 10 µM): 32.30 nmol ATP/mg protein
intracellular ATP level (MiaPaCa-2 cells [3]; syrosingopine 15 µM): 33.63 nmol ATP/mg protein
intracellular ATP level (MiaPaCa-2 cells [3]; syrosingopine 20 µM): 30.18 nmol ATP/mg protein
Intracellular oxidant-induced HE-derived products, in combination with Mito-PEG5-ATO (MiaPaCa-2 cells [2]): modest and additive increase

SMILES: O=C1C(OCCOCC[P+](c2ccccc2)(c2ccccc2)c2ccccc2)=C([C@H]2CC[C@H](c3ccc(Cl)cc3)CC2)C(=O)c2ccccc21.[Br-] [Mito-PEG2-ATO, [2-(2-((3-(trans-4-(4-chlorophenyl)cyclohexyl)-1,4-dioxo-1,4-dihydronaphthalen-2-yl)oxy)ethoxy)ethyl]triphenylphosphonium bromide]
IC50 (MiaPaCa-2 cells [1]; MIA PaCa-2, read-out: IC50, inhibition of cell proliferation): 0.3 µM
Cell confluence (% of control) (MiaPaCa-2 cells [1]; MiaPaCa-2 cells, 0.003 µM, control ~90% confluence): 95.33 % of control
Cell confluence (% of control) (MiaPaCa-2 cells [1]; MiaPaCa-2 cells, 0.01 µM, control ~90% confluence): 101.09 % of control
Cell confluence (% of control) (MiaPaCa-2 cells [1]; MiaPaCa-2 cells, 0.03 µM, control ~90% confluence): 98.91 % of control
Cell confluence (% of control) (MiaPaCa-2 cells [1]; MiaPaCa-2 cells, 0.05 µM, control ~90% confluence): 101.49 % of control
Cell confluence (% of control) (MiaPaCa-2 cells [1]; MiaPaCa-2 cells, 0.1 µM, control ~90% confluence): 100.20 % of control
Cell confluence (% of control) (MiaPaCa-2 cells [1]; MiaPaCa-2 cells, 0.2 µM, control ~90% confluence): 91.59 % of control
Cell confluence (% of control) (MiaPaCa-2 cells [1]; MiaPaCa-2 cells, 0.3 µM, control ~90% confluence): 54.02 % of control
Cell confluence (% of control) (MiaPaCa-2 cells [1]; MiaPaCa-2 cells, 0.5 µM, control ~90% confluence): 5.85 % of control
Cell confluence (% of control) (MiaPaCa-2 cells [1]; MiaPaCa-2 cells, 1 µM, control ~90% confluence): 3.35 % of control
Cell confluence (% of control) (MiaPaCa-2 cells [1]; MiaPaCa-2 cells, 3 µM, control ~90% confluence): 3.28 % of control
Cell confluence (% of control) (MiaPaCa-2 cells [1]; MiaPaCa-2 cells, 10 µM, control ~90% confluence): 2.85 % of control
OCR (pmol/min/µg protein) ([4]; 0.01 µM): 16.21 pmol/min/µg protein
OCR (pmol/min/µg protein) ([4]; 0.1 µM): 14.62 pmol/min/µg protein
OCR (pmol/min/µg protein) ([4]; 0.2 µM): 14.19 pmol/min/µg protein
OCR (pmol/min/µg protein) ([4]; 0.3 µM): 13.58 pmol/min/µg protein
OCR (pmol/min/µg protein) ([4]; 0.4 µM): 12.73 pmol/min/µg protein
OCR (pmol/min/µg protein) ([4]; 0.5 µM): 10.74 pmol/min/µg protein
OCR (pmol/min/µg protein) ([4]; 0.75 µM): 8.54 pmol/min/µg protein
OCR (pmol/min/µg protein) ([4]; 1 µM): 6.82 pmol/min/µg protein
OCR (pmol/min/µg protein) ([4]; 3 µM): 1.26 pmol/min/µg protein
OCR (pmol/min/µg protein) ([4]; 10 µM): -0.10 pmol/min/µg protein
IC50 ([4]; Homo sapiens, MIA PaCa-2, 24 h, read-out: IC50, inhibition of basal OCR in intact cells): 0.76 µM
Complex III activity (OCR, % of control) ([5]; 0.01 µM): 103.6 % of control
Complex III activity (OCR, % of control) ([5]; 0.1 µM): 95.3 % of control
Complex III activity (OCR, % of control) ([5]; 0.2 µM): 101.4 % of control
Complex III activity (OCR, % of control) ([5]; 0.3 µM): 99.3 % of control
Complex III activity (OCR, % of control) ([5]; 0.4 µM): 99.1 % of control
Complex III activity (OCR, % of control) ([5]; 0.5 µM): 88.9 % of control
Complex III activity (OCR, % of control) ([5]; 0.75 µM): 75.4 % of control
Complex III activity (OCR, % of control) ([5]; 1 µM): 64.3 % of control
Complex III activity (OCR, % of control) ([5]; 3 µM): 15.0 % of control
IC50 ([5]; MiaPaCa-2 cells, 24 h treatment, antimycin A-inhibitable OCR, read-out: IC50, complex III-induced oxygen consumption (Complex III activity)): 1.2 µM
